# In ChEMBL document CHEMBL1201862, “PubChem BioAssay data set” (2004):
# Calls of active or inactive are those of the source.
# Assays:
# [1] = target: T1, Short transient receptor potential channel 4 (Mus musculus, UniProt Q9QUQ5); experiment: calcium entry via TRPC4 opening agents – cell-based, HEK293 TRPC4/mu-opioid, Fluo-4 calcium, dose response (AID 434937); format: functional
# T1 sequence (Q9QUQ5 whole entry): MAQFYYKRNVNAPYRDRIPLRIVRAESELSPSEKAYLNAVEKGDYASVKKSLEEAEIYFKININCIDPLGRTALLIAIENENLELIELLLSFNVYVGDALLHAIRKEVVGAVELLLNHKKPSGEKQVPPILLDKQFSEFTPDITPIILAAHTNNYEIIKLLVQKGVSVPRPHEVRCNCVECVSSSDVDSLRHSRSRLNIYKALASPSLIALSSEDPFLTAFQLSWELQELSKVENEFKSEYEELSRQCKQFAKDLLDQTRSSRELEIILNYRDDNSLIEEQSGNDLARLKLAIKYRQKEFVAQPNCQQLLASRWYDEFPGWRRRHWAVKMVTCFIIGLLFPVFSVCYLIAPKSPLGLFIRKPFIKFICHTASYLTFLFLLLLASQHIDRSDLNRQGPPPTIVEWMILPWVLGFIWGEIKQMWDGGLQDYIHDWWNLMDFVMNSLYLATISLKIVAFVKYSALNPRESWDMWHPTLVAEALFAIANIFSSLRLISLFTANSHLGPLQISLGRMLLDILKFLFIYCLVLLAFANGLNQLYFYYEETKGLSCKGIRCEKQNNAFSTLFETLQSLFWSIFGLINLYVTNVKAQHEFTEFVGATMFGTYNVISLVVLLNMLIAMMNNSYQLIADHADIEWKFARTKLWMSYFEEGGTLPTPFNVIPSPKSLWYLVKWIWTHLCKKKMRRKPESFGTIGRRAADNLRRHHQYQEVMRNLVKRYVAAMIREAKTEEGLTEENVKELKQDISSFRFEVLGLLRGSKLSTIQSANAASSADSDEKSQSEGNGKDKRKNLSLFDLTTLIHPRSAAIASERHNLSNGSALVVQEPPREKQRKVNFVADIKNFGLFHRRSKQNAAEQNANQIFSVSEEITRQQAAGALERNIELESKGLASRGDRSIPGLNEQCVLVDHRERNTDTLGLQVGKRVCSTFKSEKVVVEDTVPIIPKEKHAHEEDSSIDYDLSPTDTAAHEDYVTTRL
# [2] = Trypanosoma cruzi growth suppression in host cells – NIH3T3 host cells, beta-gal luminescence, confirmation (AID 2044); format: functional, cell-based;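 further: intracellular parasites grown in NIH/3T3 mouse fibroblasts as host cells; luminescent beta-galactosidase reporter signal from transgenic T. cruzi replicating inside host cells; inhibitors lower the luminescence signal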
# [3] = NIH3T3 cell viability loss – ATP luminescence, mouse fibroblasts, counter-screen, dose response (AID 2010); format: functional, cell-based;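 further: cells exposed to compound for about 90 hours before reading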
# [4] = target: Ras and Rab interactor 1/Tyrosine-protein kinase ABL1 (Homo sapiens, UniProt P00519+Q13671); format: functional;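 further: biochemical TR-FRET dose-response test measuring inhibition of binding between Rin1 and Abl proteins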
# [5] = Luminescence Cell-Based Dose Retest to Confirm Inhibitors of Cancer Stem Cells. [Related pubchem assays (depositor defined):AID2717, AID2721]; format: functional; settings: Homo sapiens
# [6] = target: T2, Hepatocyte nuclear factor 4-alpha (Homo sapiens, UniProt P41235); format: functional, cell-based;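 further: biochemical luminescence-based dose-response counterscreen measuring inhibition of HNF4 dimerization, run alongside a screen for blockers of ABHD5–perilipin-5 interaction; split luciferase complementation of HNF4 fusion proteins in cell lysate measuring dimerization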
# T2 sequence (P41235 whole entry): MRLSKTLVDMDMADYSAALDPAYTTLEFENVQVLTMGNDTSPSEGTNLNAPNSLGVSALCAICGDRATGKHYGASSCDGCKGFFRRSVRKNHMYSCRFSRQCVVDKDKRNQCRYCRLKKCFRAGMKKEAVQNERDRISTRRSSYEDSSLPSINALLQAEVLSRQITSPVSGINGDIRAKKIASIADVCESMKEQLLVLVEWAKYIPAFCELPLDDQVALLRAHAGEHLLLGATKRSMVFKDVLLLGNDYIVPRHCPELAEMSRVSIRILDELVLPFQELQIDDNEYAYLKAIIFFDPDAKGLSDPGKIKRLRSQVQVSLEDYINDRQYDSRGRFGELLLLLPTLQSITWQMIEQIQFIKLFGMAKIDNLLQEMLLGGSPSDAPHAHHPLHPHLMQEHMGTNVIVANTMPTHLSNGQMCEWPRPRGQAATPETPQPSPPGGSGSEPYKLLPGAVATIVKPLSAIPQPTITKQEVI
# [7] = target: T3, Replicative DNA helicase DnaB (Mycobacterium tuberculosis, UniProt P9WMR3); experiment: DnaB intein splicing inhibitors, dose response, biochemical, cell-free fluorescence (AID 449749); format: functional
# T3 sequence (P9WMR3 whole entry): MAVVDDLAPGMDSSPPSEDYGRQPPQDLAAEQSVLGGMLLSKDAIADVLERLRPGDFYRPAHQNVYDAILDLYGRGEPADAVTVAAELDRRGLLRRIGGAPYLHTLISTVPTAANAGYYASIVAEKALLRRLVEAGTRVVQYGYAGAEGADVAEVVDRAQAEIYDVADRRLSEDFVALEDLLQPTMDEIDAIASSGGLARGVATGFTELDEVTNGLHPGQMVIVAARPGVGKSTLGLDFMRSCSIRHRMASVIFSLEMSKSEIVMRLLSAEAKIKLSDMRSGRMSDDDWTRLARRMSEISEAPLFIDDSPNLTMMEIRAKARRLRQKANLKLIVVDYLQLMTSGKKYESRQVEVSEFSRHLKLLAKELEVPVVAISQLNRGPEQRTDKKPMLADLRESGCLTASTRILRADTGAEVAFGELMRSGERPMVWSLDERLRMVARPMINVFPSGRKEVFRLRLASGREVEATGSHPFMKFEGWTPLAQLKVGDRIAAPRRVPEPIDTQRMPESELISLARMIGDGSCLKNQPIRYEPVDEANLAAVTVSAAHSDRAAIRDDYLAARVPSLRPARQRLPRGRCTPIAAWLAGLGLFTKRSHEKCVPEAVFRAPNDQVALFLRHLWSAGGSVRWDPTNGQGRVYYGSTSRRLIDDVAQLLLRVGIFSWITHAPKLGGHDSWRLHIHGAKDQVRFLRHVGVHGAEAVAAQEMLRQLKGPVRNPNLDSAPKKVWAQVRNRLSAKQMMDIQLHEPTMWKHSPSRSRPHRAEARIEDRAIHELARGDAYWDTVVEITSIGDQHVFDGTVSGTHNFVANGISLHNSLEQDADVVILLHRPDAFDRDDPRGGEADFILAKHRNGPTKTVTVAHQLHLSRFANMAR
# [8] = target: T4, Protein RecA (Mycobacterium tuberculosis, UniProt P9WHJ3); experiment: Fluorescence Cell-Free Homogeneous Dose Retest to Identify Inhibitors of RecA-Intein Splicing Activity. [Related pubchem assays (depositor defined):AID2097, AID2223, AID489010, AID492950]; format: functional
# T4 sequence (P9WHJ3 whole entry): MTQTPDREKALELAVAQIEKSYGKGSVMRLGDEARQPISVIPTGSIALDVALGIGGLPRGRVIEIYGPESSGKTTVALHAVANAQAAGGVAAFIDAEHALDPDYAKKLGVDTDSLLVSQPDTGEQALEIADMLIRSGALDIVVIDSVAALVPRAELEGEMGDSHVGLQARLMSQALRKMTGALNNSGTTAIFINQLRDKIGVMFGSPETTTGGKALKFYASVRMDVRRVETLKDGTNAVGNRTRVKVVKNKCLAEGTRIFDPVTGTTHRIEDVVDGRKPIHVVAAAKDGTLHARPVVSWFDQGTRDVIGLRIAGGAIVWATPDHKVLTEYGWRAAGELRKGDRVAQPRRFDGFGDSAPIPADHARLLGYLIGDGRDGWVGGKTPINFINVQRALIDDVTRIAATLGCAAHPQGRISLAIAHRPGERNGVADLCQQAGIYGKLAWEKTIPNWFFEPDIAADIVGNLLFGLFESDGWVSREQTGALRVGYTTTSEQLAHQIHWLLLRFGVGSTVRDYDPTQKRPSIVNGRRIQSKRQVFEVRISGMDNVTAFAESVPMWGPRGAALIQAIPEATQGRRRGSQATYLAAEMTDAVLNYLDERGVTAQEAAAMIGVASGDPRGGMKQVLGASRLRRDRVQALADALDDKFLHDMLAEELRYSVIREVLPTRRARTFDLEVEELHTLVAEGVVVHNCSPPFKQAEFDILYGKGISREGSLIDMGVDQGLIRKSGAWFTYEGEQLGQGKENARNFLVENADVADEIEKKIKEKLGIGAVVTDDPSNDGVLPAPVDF
# [9] = target: DNA dC->dU-editing enzyme APOBEC-3A (Homo sapiens, UniProt P31941); experiment: Dose Response confirmation of small molecule APOBEC3A DNA Deaminase Inhibitors via a fluorescence-based single-stranded DNA deaminase assay. [Related pubchem assays (depositor defined):AID493011, AID493024]; format: functional
# [10] = target: DNA dC->dU-editing enzyme APOBEC-3G (Homo sapiens, UniProt Q9HC16); format: functional;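 further: Dose-response counterscreen measuring inhibition of APOBEC3G DNA deaminase activity, run while confirming APOBEC3A inhibitors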
# [11] = HEK-293T viability loss after treatment – luminescence, T-cell screen hits, cytotoxicity control for TCR NF-kB inhibitor project, dose response (AID 489026); format: functional, cell-based;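 further: cells exposed to compound about 14 hours before the viability readout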
# [12] = viability of uninfected HEp-2 cells – cell-based, HTS, cytotoxicity control for RSV inhibitor project, dose response (AID 2410); format: functional; settings: human respiratory syncytial virus
# [13] = target: T5, Low molecular weight phosphotyrosine protein phosphatase (Homo sapiens, UniProt P24666); format: functional; settings: read-out: IC50_Mean;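 further: Dose-response confirmation assay measuring inhibition of LMPTP enzyme activity by fluorescence intensity read-out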
# T5 sequence (P24666 whole entry): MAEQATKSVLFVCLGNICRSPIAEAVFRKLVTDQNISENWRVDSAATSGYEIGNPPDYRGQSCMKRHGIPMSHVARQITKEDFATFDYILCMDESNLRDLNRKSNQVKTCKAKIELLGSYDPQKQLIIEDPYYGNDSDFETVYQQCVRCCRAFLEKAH
# [14] = target: T6, Coagulation factor XII (Homo sapiens, UniProt P00748); format: functional;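 further: activated factor XIIa alpha cleaving a fluorogenic AMC peptide substrate; inhibitor potency from loss of enzyme activity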
# T6 sequence (P00748 whole entry): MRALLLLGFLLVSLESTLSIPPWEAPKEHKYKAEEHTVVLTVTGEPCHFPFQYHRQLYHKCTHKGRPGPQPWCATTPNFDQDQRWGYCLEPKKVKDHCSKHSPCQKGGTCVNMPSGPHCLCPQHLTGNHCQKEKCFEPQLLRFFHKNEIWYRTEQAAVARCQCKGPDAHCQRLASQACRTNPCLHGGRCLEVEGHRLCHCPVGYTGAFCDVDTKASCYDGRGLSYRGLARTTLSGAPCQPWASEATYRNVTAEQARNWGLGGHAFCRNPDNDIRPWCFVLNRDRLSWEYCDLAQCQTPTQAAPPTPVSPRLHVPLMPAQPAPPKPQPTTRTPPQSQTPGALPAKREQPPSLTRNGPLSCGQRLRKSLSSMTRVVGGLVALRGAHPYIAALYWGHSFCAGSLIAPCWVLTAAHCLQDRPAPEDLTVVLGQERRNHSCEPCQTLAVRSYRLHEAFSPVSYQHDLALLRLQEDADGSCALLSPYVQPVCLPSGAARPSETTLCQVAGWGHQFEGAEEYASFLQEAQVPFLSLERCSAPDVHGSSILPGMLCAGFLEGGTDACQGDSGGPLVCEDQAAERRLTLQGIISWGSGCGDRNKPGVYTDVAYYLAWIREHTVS
# [15] = test system: H9c2; experiment: cells; format: functional, cell-based; settings: Rattus norvegicus, H9c2, Myocardium;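 further: confirmatory concentration-response retest of ultra-high-throughput screening hits for modulation of myocardial damage; cell death induced by hydrogen peroxide oxidative stress; compound pretreatment for 60 min then peroxide exposure for 2 h; potency is for protecting the cells against peroxide damage rather than for killing them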
# [16] = target: Melanocortin receptor 4 (Homo sapiens, UniProt P32245); format: functional, cell-based;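 further: Cell-based assay with luminescence read-out, confirmatory dose-response testing for agonist activity of biased ligands at MC4R; human U2OS cells with tagged receptor and beta-arrestin; potency of agonists that increase receptor coupling to beta-arrestin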
# [17] = loss of viability in HepG2 cells – cell-based, CellTiter-Glo, cherry-picked, cytotoxicity control for Shn3 inhibitor project, dose response (AID 624134); format: functional
# [18] = reduction of Shn3 3'UTR-driven luciferase in osteoblasts – cell-based, Clone20 osteoblasts, firefly luciferase, cherry-picked, dose response (AID 624132); format: functional;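 further: firefly luciferase luminescence from reporter carrying the Shn3 3'UTR in osteoblasts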
# [19] = non-specific 3'UTR reporter inhibition in Clone20-Shn3RL – cell-based, Renilla luciferase, cherry-picked, counter-screen for Shn3 inhibitor project, dose response (AID 624133); format: functional
# [20] = Vero E6 cell cytotoxicity, dose response, cytotoxicity control for non-replicating M. tuberculosis project, secondary assay (AID 492998); format: functional, VeroE6; settings: Vero C1008
# [21] = cells; format: functional
# DNA dC->dU-editing enzyme APOBEC-3G, sequence (Q9HC16 whole entry): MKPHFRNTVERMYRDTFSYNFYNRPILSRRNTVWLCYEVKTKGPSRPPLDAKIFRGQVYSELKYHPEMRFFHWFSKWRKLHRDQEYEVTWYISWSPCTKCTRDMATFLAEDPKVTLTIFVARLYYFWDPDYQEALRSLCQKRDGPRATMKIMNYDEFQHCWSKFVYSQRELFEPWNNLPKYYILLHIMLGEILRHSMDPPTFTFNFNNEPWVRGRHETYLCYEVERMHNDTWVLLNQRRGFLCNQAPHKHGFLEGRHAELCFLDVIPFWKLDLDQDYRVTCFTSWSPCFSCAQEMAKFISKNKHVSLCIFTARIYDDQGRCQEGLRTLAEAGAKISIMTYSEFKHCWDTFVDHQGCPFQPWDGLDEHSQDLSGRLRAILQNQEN
# DNA dC->dU-editing enzyme APOBEC-3A, sequence (P31941 whole entry): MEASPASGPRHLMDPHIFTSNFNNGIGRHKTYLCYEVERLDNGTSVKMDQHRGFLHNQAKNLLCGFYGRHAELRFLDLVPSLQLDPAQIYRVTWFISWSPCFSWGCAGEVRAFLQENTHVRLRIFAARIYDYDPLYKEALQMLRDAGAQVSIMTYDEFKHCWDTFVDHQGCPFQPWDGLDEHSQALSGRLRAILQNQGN
# Ras and Rab interactor 1/Tyrosine-protein kinase ABL1, sequence (P00519 whole entry): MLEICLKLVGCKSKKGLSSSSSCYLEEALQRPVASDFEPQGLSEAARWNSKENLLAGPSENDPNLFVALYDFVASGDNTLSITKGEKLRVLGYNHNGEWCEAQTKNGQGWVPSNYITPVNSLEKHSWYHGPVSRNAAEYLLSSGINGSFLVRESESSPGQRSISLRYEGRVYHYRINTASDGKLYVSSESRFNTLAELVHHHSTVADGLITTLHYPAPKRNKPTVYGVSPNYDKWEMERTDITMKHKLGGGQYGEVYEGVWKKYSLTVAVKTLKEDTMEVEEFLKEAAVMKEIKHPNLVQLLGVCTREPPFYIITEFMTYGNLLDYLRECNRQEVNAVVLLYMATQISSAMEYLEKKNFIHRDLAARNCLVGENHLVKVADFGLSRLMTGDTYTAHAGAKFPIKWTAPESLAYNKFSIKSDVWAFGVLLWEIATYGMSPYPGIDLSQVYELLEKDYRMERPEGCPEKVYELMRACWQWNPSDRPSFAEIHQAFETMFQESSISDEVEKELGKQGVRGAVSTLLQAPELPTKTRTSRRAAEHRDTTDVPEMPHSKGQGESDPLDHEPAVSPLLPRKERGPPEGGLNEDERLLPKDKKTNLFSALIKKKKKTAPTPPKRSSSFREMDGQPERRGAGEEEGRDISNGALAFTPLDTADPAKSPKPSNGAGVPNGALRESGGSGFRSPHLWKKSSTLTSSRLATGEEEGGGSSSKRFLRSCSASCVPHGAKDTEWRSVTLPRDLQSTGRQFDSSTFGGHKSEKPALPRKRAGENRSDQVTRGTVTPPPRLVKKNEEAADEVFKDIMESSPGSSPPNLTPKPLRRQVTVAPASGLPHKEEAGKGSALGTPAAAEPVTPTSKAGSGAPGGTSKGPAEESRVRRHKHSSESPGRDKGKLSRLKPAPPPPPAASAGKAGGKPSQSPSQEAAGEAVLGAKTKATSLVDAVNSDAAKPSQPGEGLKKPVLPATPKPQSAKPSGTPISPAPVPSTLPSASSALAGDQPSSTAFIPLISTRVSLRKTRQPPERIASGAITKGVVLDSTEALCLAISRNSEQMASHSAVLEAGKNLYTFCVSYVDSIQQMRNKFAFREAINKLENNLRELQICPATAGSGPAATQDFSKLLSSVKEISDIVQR
# Ras and Rab interactor 1/Tyrosine-protein kinase ABL1, sequence (Q13671 whole entry): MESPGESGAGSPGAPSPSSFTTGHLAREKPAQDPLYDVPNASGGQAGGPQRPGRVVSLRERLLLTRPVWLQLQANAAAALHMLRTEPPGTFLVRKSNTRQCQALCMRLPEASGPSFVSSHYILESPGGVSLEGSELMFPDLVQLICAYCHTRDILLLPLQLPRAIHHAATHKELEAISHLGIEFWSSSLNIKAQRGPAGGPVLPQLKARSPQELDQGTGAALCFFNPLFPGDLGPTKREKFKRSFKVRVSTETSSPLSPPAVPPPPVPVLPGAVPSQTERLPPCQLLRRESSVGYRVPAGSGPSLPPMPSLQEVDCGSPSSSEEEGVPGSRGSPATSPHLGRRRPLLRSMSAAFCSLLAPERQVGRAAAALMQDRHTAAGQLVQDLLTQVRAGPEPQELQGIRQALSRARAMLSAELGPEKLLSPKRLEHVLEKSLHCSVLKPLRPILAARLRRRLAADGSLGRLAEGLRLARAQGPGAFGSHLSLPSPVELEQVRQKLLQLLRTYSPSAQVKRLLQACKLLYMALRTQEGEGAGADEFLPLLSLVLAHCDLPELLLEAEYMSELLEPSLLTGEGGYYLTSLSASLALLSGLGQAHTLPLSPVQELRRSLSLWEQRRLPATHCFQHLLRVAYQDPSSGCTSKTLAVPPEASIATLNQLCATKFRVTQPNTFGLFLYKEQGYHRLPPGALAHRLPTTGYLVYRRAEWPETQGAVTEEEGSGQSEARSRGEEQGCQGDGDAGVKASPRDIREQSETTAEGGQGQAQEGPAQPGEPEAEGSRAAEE
# Melanocortin receptor 4, sequence (P32245 whole entry): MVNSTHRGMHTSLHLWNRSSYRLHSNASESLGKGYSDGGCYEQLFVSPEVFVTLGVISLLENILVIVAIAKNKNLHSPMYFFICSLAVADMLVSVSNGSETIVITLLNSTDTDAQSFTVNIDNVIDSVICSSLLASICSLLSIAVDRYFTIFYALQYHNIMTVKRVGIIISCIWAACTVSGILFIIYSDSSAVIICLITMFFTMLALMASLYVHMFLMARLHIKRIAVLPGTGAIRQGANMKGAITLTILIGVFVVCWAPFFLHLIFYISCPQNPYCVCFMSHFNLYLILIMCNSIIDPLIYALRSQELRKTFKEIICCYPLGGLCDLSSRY
smiles,measurement,setting,value
COc1ccc(CCNCc2ccc(SC)cc2)cc1,EC50,[1],5.31 µM (active)
same,EC50,[2],0.225 µM (active)
same,EC50,[3],> 60 µM (not active)
C=CCn1c2ccccc2c2nnc(SCc3[nH]c(=O)[nH]c3C(=O)CCCCC(=O)OCC)nc21,IC50,[4],2.19 µM (active)
Cc1cc(C)c(C(CC(=O)c2cccs2)C(C#N)C#N)c(C)c1 (stereo unspecified),AC50,[5],5.08 µM (active)
same,IC50,[6],8.02 µM (active)
same,AC50,[7],3.42 µM (active)
same,EC50,[8],2.31 µM (active)
COCCN(C(=O)COC(=O)CNC(=O)c1cccs1)c1c(N)n(Cc2ccccc2)c(=O)[nH]c1=O,IC50,[9],8.35 µM (active)
same,IC50,[10],10.8 µM (active)
Cc1sc2ncnc(NCC(c3ccco3)N3CCCC3)c2c1C (stereo unspecified),EC50,[1],0.0173 µM (active)
CCOC(=O)c1[nH]c(C)c(C(=O)Nc2cc(Cl)ccc2C)c1C,IC50,[11],> 80 µM (inactive)
Cc1cccc(N(Cc2ccccc2)C(=O)Cc2ccc(S(=O)(=O)N3CCOCC3)s2)c1,IC50,[4],18.6 µM (inactive)
same,CC50,[12],22 µM (active)
CCn1cc(C(=O)O)c(=O)c2cc(F)c(N3CCN(C(=S)NC(=O)c4ccccc4Br)CC3)cc21,IC50,[13],4.66 µM (active)
CCCCN(CC)CCNC(=O)Cn1cc2c(n1)-c1c(oc(C(=O)N3CCCC3)c1C)CC2,EC50,[1],0.267 µM (active)
CC(=O)Nc1ccc(NC(=O)CCn2c(=S)oc3ccccc32)cc1,IC50,[14],> 50 µM (inactive)
CCN1CCN(S(=O)(=O)c2ccc(Cl)c(C(=O)Nc3cc(Cl)ccc3N3CCOCC3)c2)CC1,IC50,[9],5.15 µM (active)
same,IC50,[10],5.78 µM (active)
CC(=O)c1cccc(-c2cnc3c(NC=O)cc(-c4ccccc4F)cn23)c1,IC50,[15],> 79 µM (inactive)
same,EC50,[16],> 89.2 µM (inactive)
Cc1ccc2nc(-c3cccc(SC4CCCCC4)c3)c(NCc3ccccc3)n2c1,AC50,[17],> 70 µM (inactive)
same,AC50,[18],3.53 µM (active)
same,AC50,[19],5.3 µM (active)
O=C(NCc1ccccc1)C(c1ccc(C(F)(F)F)cc1)n1c(=O)c(-c2ccco2)nc2ccccc21 (stereo unspecified),IC50,[6],2.02 µM (active)
CCCCCNC(=O)C(c1ccccc1F)n1c(=O)c(-c2ccco2)nc2ccccc21 (stereo unspecified),IC50,[6],0.97 µM (active)
O=C(N/N=C/c1ccccn1)c1ccccc1,CC50,[20],> 20 µM (active)
same,IC50,[21],> 50 µM (active)
COc1ccc(/C=N/NC(=O)C(C)Sc2ccccn2)cc1[N+](=O)[O-] (stereo unspecified),IC50,[9],6.02 µM (active)
same,IC50,[10],7.71 µM (active)
Brc1cccc(/C=N/Nc2nn[nH]n2)c1,IC50,[14],> 50 µM (inactive)
